The test system of one experiment is Human whole blood. Nature of the experiment: IRAK4 Whole Blood Assay (IL-6 levels after stimulation with TLR2 agonist lipoteichoic acid). The following applies: 10 μg/mL lipoteichoic acid, 5 hours. It is filed as cell-based. On the procedure: Human whole blood containing the anti-coagulant ACD-A was plated in 384-well plate (25 μL/well) and incubated with compounds for 60 minutes at 37° C. in a 5% CO2 incubator. The blood was stimulated with a TLR2 agonist, 10 μg/mL final concentration of lipoteichoic acid (Invivogen, San Diego, CA) in 25 μL RPMI (Gibco) for 5 hours in a 5% CO2 incubator. At the end of the incubation, plates were centrifuged at 2300 rpm for 5 minutes. Supernatants were harvested and analyzed for IL-6 levels by Flow Cytometry beads assay (BD Biosciences, San Jose, CA).

For a further experiment, the target named is IRAK4 (Homo sapiens (Human), UniProt Q9NWZ3). Nature of the experiment: IRAK4 Inhibition Assay. Type of experiment: biochemical. The following applies: ATP 500 μM; IRAK4 0.6 nM; 60 min room temperature; Caliper LABCHIP 3000.
Chain of IRAK4 (Q9NWZ3 whole entry, species assumed): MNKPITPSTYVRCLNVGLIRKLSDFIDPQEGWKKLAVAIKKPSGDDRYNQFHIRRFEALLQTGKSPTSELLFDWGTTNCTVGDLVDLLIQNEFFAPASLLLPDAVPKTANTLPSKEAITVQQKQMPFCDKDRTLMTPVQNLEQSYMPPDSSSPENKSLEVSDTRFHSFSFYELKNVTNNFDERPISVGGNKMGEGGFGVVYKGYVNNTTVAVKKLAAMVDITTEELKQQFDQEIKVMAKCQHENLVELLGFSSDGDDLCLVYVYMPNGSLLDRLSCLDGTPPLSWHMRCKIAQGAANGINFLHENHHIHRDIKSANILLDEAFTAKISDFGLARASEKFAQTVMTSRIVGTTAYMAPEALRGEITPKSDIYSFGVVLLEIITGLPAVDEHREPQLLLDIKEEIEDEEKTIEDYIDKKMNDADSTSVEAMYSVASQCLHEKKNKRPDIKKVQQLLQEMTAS

For orientation: EC50 means the concentration giving half of the maximal effect. High values mean weaker potency, low ones greater potency. As usually defined, the IC50 is the midpoint of a concentration-inhibition curve. `CCOCCNC(=O)c1cnc2ccc(-c3cn[nH]c3)cc2c1NC(C)C` [Example 10, N-(2-ethoxyethyl)-4-(isopropylamino)-6-(1H-pyrazol-4-yl)quinoline-3-carboxamide] registered an EC50 in the experiment with Human whole blood of 2.26 µM. In addition, the IC50 on IRAK4 was found to be 0.015 µM.

In the experiment with Human whole blood, `CC(=O)N1CC(n2cc(-c3cnc4ccc(-c5cn[nH]c5)cc4c3NC(C)C)nn2)C1` [Example 132, 1-(3-(4-(4-(isopropylamino)-6-(1H-pyrazol-4-yl)quinolin-3-yl)-1H-1,2,3-triazol-1-yl)azetidin-1-yl)ethan-1-one] displayed an EC50 of 0.799 µM. Also, on IRAK4, the IC50 is 0.0029 µM.

Regarding `CC(C)Nc1c(C(=O)NC[C@@H](F)C(C)(C)O)cnc2ccc(-c3cncs3)cc12` [Example 7, (R)—N-(2-fluoro-3-hydroxy-3-methylbutyl)-4-(isopropylamino)-6-(thiazol-5-yl)quinoline-3-carboxamide], the EC50 in the experiment on Human whole blood turned out to be 5.71 µM. Also, the IC50 on IRAK4 worked out at 0.0082 µM.

`CC(C)Nc1c(-c2cn(CCCO)nn2)cnc2ccc(-c3cn[nH]c3)cc12` [Example 131, 3-(4-(4-(isopropylamino)-6-(1H-pyrazol-4-yl)quinolin-3-yl)-1H-1,2,3-triazol-1-yl)propan-1-ol]: the response with Human whole blood was half-maximal at 0.713 µM (EC50). Also, on IRAK4, the IC50 amounted to 0.0078 µM.

`CC(C)Nc1c(C(=O)NC2CCN(Cc3ccc(F)cc3)CC2)cnc2ccc(-c3cn[nH]c3)cc12` [Example 76, N-(1-(4-fluorobenzyl)piperidin-4-yl)-4-(isopropylamino)-6-(1H-pyrazol-4-yl)quinoline-3-carboxamide]: in the experiment on Human whole blood, the EC50 was 1.69 µM. The IC50 at IRAK4 came to 0.0123 µM.

`Cc1cc2ncc(C(=O)NCCC(C)(C)O)c(NC(C)C)c2cc1-c1cn[nH]c1` [Example 59, N-(3-hydroxy-3-methylbutyl)-4-(isopropylamino)-7-methyl-6-(1H-pyrazol-4-yl)quinoline-3-carboxamide] displayed an EC50 in the experiment with Human whole blood of 4.74 µM. Besides, the IC50 on IRAK4 came out at 0.016 µM.

As to `CC(O)CCNC(=O)c1cnc2ccc(-c3cn[nH]c3)nc2c1NC(C)C` (stereo not shown) [Example 140, N-(3-hydroxybutyl)-4-(isopropylamino)-6-(1H-pyrazol-4-yl)-1,5-naphthyridine-3-carboxamide], the midpoint of the response in the experiment on Human whole blood, the EC50, lay at 0.137 µM. The IC50 at IRAK4 was 0.0048 µM.

For the molecule `CC(C)Nc1c(C(=O)NC2CCN(C(=O)C3CC3)CC2)cnc2ccc(-c3cn[nH]c3)cc12` [Example 81, N-(1-(cyclopropanecarbonyl)piperidin-4-yl)-4-(isopropylamino)-6-(1H-pyrazol-4-yl)quinoline-3-carboxamide], a half-maximal response with Human whole blood (EC50) required 1.4 µM. Besides, at IRAK4, the half-maximal inhibitory concentration (IC50) was found to be 0.0117 µM.

Turning to `CC(=O)N1CCC(NC(=O)c2cnc3ccc(-c4cn[nH]c4)cc3c2NC(C)C)CC1` [Example 77, N-(1-acetylpiperidin-4-yl)-4-(isopropylamino)-6-(1H-pyrazol-4-yl)quinoline-3-carboxamide], the EC50 in the experiment with Human whole blood is 0.788 µM. In addition, the IC50 on IRAK4 worked out at 0.0099 µM.

In turn, `CC(C)Nc1c(C(=O)NCCC2CC2)cnc2ccc(-c3cn[nH]c3)cc12` [Example 51, N-(2-cyclopropylethyl)-4-(isopropylamino)-6-(1H-pyrazol-4-yl)quinoline-3-carboxamide] came in with an EC50 with Human whole blood of 0.699 µM. The IC50 at IRAK4 was determined as 0.0045 µM.

The molecule `CC(C)Nc1c(C(=O)NCc2cnco2)cnc2ccc(-c3cn[nH]c3)cc12` [Example 14, 4-(isopropylamino)-N-(oxazol-5-ylmethyl)-6-(1H-pyrazol-4-yl)quinoline-3-carboxamide] had an EC50 in the experiment on Human whole blood of 0.868 µM. Besides, the IC50 at IRAK4 worked out at 0.0141 µM.

For the molecule `CC1(Nc2c(C(=O)NC[C@@H](F)C(C)(C)O)cnc3ccc(-c4cn[nH]c4)cc23)CC1` [Example 121, (R)—N-(2-fluoro-3-hydroxy-3-methylbutyl)-4-((1-methylcyclopropyl)amino)-6-(1H-pyrazol-4-yl)quinoline-3-carboxamide], the EC50 in the experiment with Human whole blood stood at 0.686 µM. The IC50 on IRAK4 stood at 0.0027 µM.

`CC1(Nc2c(C(=O)NCC3CCS(=O)(=O)C3)cnc3ccc(-c4cn[nH]c4)cc23)CC1` (stereo not shown) [Example 123, N-((1,1-dioxidotetrahydrothiophen-3-yl)methyl)-4-((1-methylcyclopropyl)amino)-6-(1H-pyrazol-4-yl)quinoline-3-carboxamide] came in with a half-maximal effective concentration (EC50) in the experiment with Human whole blood of 0.606 µM. Moreover, the IC50 at IRAK4 was 0.0041 µM.

In turn, `O=C(NCCc1cccnc1)c1cnc2ccc(-c3cn[nH]c3)cc2c1NC1CC1` [Example 115, 4-(cyclopropylamino)-6-(1H-pyrazol-4-yl)-N-(2-(pyridin-3-yl)ethyl)quinoline-3-carboxamide] displayed a half-maximal effective concentration (EC50) with Human whole blood of 1.1 µM. Also, the IC50 at IRAK4 was 0.0044 µM.

On to `CC(C)Nc1c(C(=O)NCCC(F)(F)F)cnc2ccc(-c3cn[nH]c3)cc12` [Example 43, 4-(isopropylamino)-6-(1H-pyrazol-4-yl)-N-(3,3,3-trifluoropropyl)quinoline-3-carboxamide], for which the EC50 in the experiment with Human whole blood is 0.549 µM. Further, the IC50 at IRAK4 worked out at 0.0146 µM.

In the case of `CC(C)Nc1c(C(=O)NC2CCN(S(C)(=O)=O)CC2)cnc2ccc(-c3cn[nH]c3)cc12` [Example 79, 4-(isopropylamino)-N-(1-(methylsulfonyl)piperidin-4-yl)-6-(1H-pyrazol-4-yl) quinoline-3-carboxamide], it took 0.618 µM to reach a half-maximal effect in the experiment with Human whole blood (EC50). For the same molecule, the IC50 on IRAK4 came to 0.0057 µM.

As for `CC(C)Nc1c(C(=O)NCC2CCS(=O)(=O)CC2)cnc2ccc(-c3cn[nH]c3)cc12` [Example 107, N-((1,1-dioxidotetrahydro-2H-thiopyran-4-yl)methyl)-4-(isopropylamino)-6-(1H-pyrazol-4-yl)quinoline-3-carboxamide], a half-maximal response with Human whole blood (EC50) required 3.77 µM. The IC50 on IRAK4 is 0.021 µM.

Consider `CC1(Nc2c(C(=O)NCCN3CCS(=O)(=O)CC3)cnc3ccc(-c4cn[nH]c4)cc23)CC1` [Example 119, N-(2-(1,1-dioxidothiomorpholino)ethyl)-4-((1-methylcyclopropyl)amino)-6-(1H-pyrazol-4-yl)quinoline-3-carboxamide], for which the EC50 in the experiment with Human whole blood is 1.18 µM. Moreover, the IC50 on IRAK4 came to 0.0032 µM.

As for `O=C(NCCC1CCS(=O)(=O)CC1)c1cnc2ccc(-c3cn[nH]c3)cc2c1NC1CC1` [Example 120, 4-(cyclopropylamino)-N-(2-(1,1-dioxidotetrahydro-2H-thiopyran-4-yl)ethyl)-6-(1H-pyrazol-4-yl)quinoline-3-carboxamide], the EC50 in the experiment on Human whole blood came out at 6.04 µM. The IC50 on IRAK4 was found to be 0.0087 µM.

The molecule `O=C(NCCCc1ccncc1)c1cnc2ccc(-c3cn[nH]c3)cc2c1NC1CC1` [Example 118, 4-(cyclopropylamino)-6-(1H-pyrazol-4-yl)-N-(3-(pyridin-4-yl)propyl)quinoline-3-carboxamide] displayed an EC50 in the experiment on Human whole blood of 3.15 µM. Further, the IC50 on IRAK4 was 0.0108 µM.

Consider `CC(C)Nc1c(C(=O)NCCC2CC2)cnc2ccc(-c3cn[nH]c3)nc12` [Example 149, N-(2-cyclopropylethyl)-4-(isopropylamino)-6-(1H-pyrazol-4-yl)-1,5-naphthyridine-3-carboxamide], for which a half-maximal effect in the experiment on Human whole blood (EC50) was put at 0.175 µM. The IC50 on IRAK4 was 0.0027 µM.

Molecule `CC(C)Nc1c(-c2cn(CC3CC3)nn2)cnc2ccc(-c3cn[nH]c3)cc12` [Example 130, 3-(1-(cyclopropylmethyl)-1H-1,2,3-triazol-4-yl)-N-isopropyl-6-(1H-pyrazol-4-yl) quinolin-4-amine] showed an EC50 in the experiment on Human whole blood of 1.89 µM. The IC50 on IRAK4 was determined as 0.006 µM.

As to `CC(C)Nc1c(C(=O)NCCCNS(C)(=O)=O)cnc2ccc(-c3cn[nH]c3)cc12` [Example 95, 4-(isopropylamino)-N-(3-(methylsulfonamido)propyl)-6-(1H-pyrazol-4-yl)quinoline-3-carboxamide], the EC50 in the experiment with Human whole blood was 3.22 µM. Also, the IC50 on IRAK4 worked out at 0.0105 µM.

`CC(C)Nc1c(C(=O)NCCC2CCNC2)cnc2ccc(-c3cn[nH]c3)cc12` (stereo not shown) [Example 97, 4-(isopropylamino)-6-(1H-pyrazol-4-yl)-N-(2-(pyrrolidin-3-yl)ethyl)quinoline-3-carboxamide] registered an EC50 in the experiment on Human whole blood of 2.08 µM. In addition, the IC50 on IRAK4 was determined as 0.0097 µM.

On to `CC(C)Nc1c(C(=O)NCCC(C)(C)O)cnc2ccc(-c3cn[nH]c3)nc12` [Example 138, N-(3-hydroxy-3-methylbutyl)-4-(isopropylamino)-6-(1H-pyrazol-4-yl)-1,5-naphthyridine-3-carboxamide], for which the EC50 in the experiment with Human whole blood came out at 0.058 µM. In addition, the IC50 at IRAK4 amounted to 0.0027 µM.

Regarding `CC(=O)N[C@H]1CC[C@H](NC(=O)c2cnc3ccc(-c4cn[nH]c4)cc3c2NC(C)C)CC1` [Example 24, N-((1r,4r)-4-acetamidocyclohexyl)-4-(isopropylamino)-6-(1H-pyrazol-4-yl)quinoline-3-carboxamide], a half-maximal response with Human whole blood (EC50) required 0.584 µM. Besides, the concentration for half-maximal inhibition (IC50) at IRAK4 was determined as 0.0077 µM.

In the case of `COC(=O)N[C@H]1CC[C@H](NC(=O)c2cnc3ccc(-c4cn[nH]c4)cc3c2NC(C)C)C1` [Example 26, methyl ((1S,3S)-3-(4-(isopropylamino)-6-(1H-pyrazol-4-yl)quinoline-3-carboxamido)cyclopentyl) carbamate], in the experiment on Human whole blood, the EC50 came to 1.46 µM. Also, the IC50 at IRAK4 is 0.0123 µM.

The molecule `CC(C)Nc1c(C(=O)NCCN2CCOCC2)cnc2ccc(-c3cn[nH]c3)cc12` [Example 44, 4-(isopropylamino)-N-(2-morpholinoethyl)-6-(1H-pyrazol-4-yl)quinoline-3-carboxamide] showed an EC50 with Human whole blood of 1.19 µM. Besides, the IC50 on IRAK4 came out at 0.0097 µM.

For the molecule `CC(C)Nc1c(C(=O)NCCC(C)(C)O)cnc2ccc(-c3cn[nH]c3)cc12` [Example 17, N-(3-hydroxy-3-methylbutyl)-4-(isopropylamino)-6-(1H-pyrazol-4-yl)quinoline-3-carboxamide], the EC50 with Human whole blood was determined as 0.936 µM. At IRAK4, the IC50 came to 0.008 µM.

The record behind these values is patent publication US12492186B2, “Bicyclic heterocyclic compounds useful as IRAK4 inhibitors” (BRISTOL-MYERS SQUIBB COMPANY, priority 2019, dated 2025).
